Consider four compounds from US10980889B1 (Revolution Medicines, Inc., priority 2018, dated 2021).

In one test the test system is P-4E-BP1 (T37/46). In words: Cell based AlphaLISA assay, inhibition of P-4E-BP1 (T37/46) in MDA-MB-468 cells (mTORC1 substrate). The conditions noted are these: Homo sapiens, 4 h, AlphaLisa, two to four hours at 37° C., read-out: pIC50 for Inhibition of mTORC1 and mTORC2 Substrate Phosphorylation P-4E-BP1-(T37/46) (converted). In outline: (§1)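 In MDA-MB-468 cells, phosphorylation of 4EBP1 (Thr37/46), P70S6K (Thr389) and AKT (Ser473) was measured after incubation with inhibitor by AlphaLISA SureFire Ultra on cell lysates, in duplicate. IC50 values came from control-normalized concentration-response regression.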
For orientation: In Alpha technology, singlet oxygen from a donor bead excites a nearby acceptor bead.

In a further test the test system is P-Akt (S473). As to the kind of experiment: Cell based AlphaLISA assay, inhibition of P-Akt (S473) in MDA-MB-468 cells (mTORC2 substrate). The settings on record: Homo sapiens, 4 h, AlphaLisa, two to four hours at 37° C., read-out: pIC50 for Inhibition of mTORC1 and mTORC2 Substrate Phosphorylation p-AKT1/2/3-(S473) (converted). In a few lines: as §1
Another test deals with P-P70S6K (T389). In words: Cell based AlphaLISA assay, inhibition of P-P70S6K (T389) in MDA-MB-468 cells (mTORC1 substrate). The conditions noted are these: Homo sapiens, 4 h, AlphaLisa, two to four hours at 37° C., read-out: pIC50 for Inhibition of mTORC1 and mTORC2 Substrate Phosphorylation p-P70S6K-(T389) (converted). In a few lines:
as §1

Consider `CO[C@H]1C[C@@H]2CC[C@@H](C)[C@@](O)(O2)C(=O)C(=O)N2CCCC[C@H]2C(=O)O[C@H]([C@H](C)C[C@@H]2CC[C@@H](OC(=O)N3CCc4nc(N5CCN(c6ncc(C(=O)NCCOCCOCCOCCOCCC(=O)N7CCc8cc(Cn9nc(-c%10cnc%11[nH]ccc%11c%10)c%10c(N)ncnc%109)ccc8C7)c(N)n6)CC5)ncc4C3)[C@H](OC)C2)CC(=O)[C@H](C)/C=C(\C)[C@@H](O)[C@@H](OC)C(=O)[C@H](C)C[C@H](C)/C=C/C=C/C=C/1C` [Example 97], for which the figures for the IC50 in the test with P-4E-BP1 (T37/46), in the test with P-Akt (S473) and in the test with P-P70S6K (T389) were below 3.16 nM, 3.16 to 31.6 nM and below 1 nM, respectively.
`CO[C@H]1C[C@@H]2CC[C@@H](C)[C@@](O)(O2)C(=O)C(=O)N2CCCC[C@H]2C(=O)O[C@H]([C@H](C)C[C@@H]2CC[C@@H](OC(=S)NCc3cnc(N4CCN(C(=O)CCOCCN5CCN(c6ncc(C(=O)N7CCc8cc(Cn9nc(-c%10ccc%11oc(N)nc%11c%10)c%10c(N)ncnc%109)ccc8C7)cn6)CC5)CC4)nc3)[C@H](OC)C2)CC(=O)[C@H](C)/C=C(\C)[C@@H](O)[C@@H](OC)C(=O)[C@H](C)C[C@H](C)/C=C/C=C/C=C/1C` [Example 119]: the IC50 is below 3.16 nM in the test with P-4E-BP1 (T37/46), 3.16 to 31.6 nM in the test on P-Akt (S473) and below 1 nM in the test on P-P70S6K (T389).
For `CO[C@H]1C[C@@H]2CC[C@@H](C)[C@@](O)(O2)C(=O)C(=O)N2CCCC[C@H]2C(=O)O[C@H]([C@H](C)C[C@@H]2CC[C@@H](OC(=O)NCCOCCOCCN3CCN(CCOCCOCCOCCOCCC(=O)N4CCc5cc(Cn6nc(-c7ccc8oc(N)nc8c7)c7c(N)ncnc76)ccc5C4)CC3)[C@H](OC)C2)C[C@@H](O)[C@H](C)/C=C(\C)[C@@H](O)[C@@H](OC)C(=O)[C@H](C)C[C@H](C)/C=C/C=C/C=C/1C` [Example 143] the same measures were 3.16 to 31.6 nM, above 1000 nM and below 1 nM.
For the compound `CO[C@H]1C[C@@H]2CC[C@@H](C)[C@@](O)(O2)C(=O)C(=O)N2CCCC[C@H]2C(=O)O[C@H]([C@H](C)C[C@@H]2CC[C@@H](OC(=O)NCCOCCOCCOCCOCCOCCOCCOCCOCCC(=O)NCCS(=O)(=O)c3ccc(C(=O)N4CCOc5ccc(-c6ccc(N)nc6)cc5C4)c(C)c3)[C@H](OC)C2)CC(=O)[C@H](C)/C=C(\C)[C@@H](O)[C@@H](OC)C(=O)[C@H](C)C[C@H](C)/C=C/C=C/C=C/1C` [Example 40], the IC50 with P-4E-BP1 (T37/46) is below 3.16 nM; in the test with P-Akt (S473) it was 3.16 to 31.6 nM; in the test on P-P70S6K (T389), below 1 nM.
